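Test compounds were applied to cells in 96-well plates for 48 hours at 5 doses. GI50 marks 50% less growth.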 The source made the active and inactive calls. No stated cut-off is given here; in the data, active = GI50 up to about 1.1 µM and inactive = higher.
What was measured:
Test in all cases: NCI tumour cell line growth inhibition, 48 h
A498 = test system: A498
A549 = test system: A549
CAKI-1 = test system: CAKI-1
COLO 205 = test system: COLO 205
HL-60 = test system: HL-60
HOP-62 = test system: HOP-62
MCF7 = test system: MCF7
MDA-MB-231 = test system: MDA-MB-231
MDA-N = test system: MDA-N
MOLT-4 = test system: MOLT-4
NCI-H226 = test system: NCI-H226
NCI-H460 = test system: NCI-H460
NCI-H522 = test system: NCI-H522
NCI/ADR-RES = test system: NCI/ADR-RES
OVCAR-3 = test system: OVCAR-3
OVCAR-8 = test system: OVCAR-8
SK-MEL-28 = test system: SK-MEL-28
SK-MEL-5 = test system: SK-MEL-5
SN12C = test system: SN12C
TK-10 = test system: TK-10

CCN(CC)CCO/N=C1\CC[C@H]2[C@@H]3CCc4cc(OC)ccc4[C@H]3CC[C@]12C
GI50 (A498): 3.18 µM (inactive) | GI50 (A549): 2.84 µM (inactive) | GI50 (CAKI-1): 0.74 µM (active) | GI50 (COLO 205): 1.57 µM (inactive) | GI50 (HL-60): 0.885 µM (active) | GI50 (HOP-62): 1.77 µM (inactive) | GI50 (MCF7): 3.66 µM (inactive) | GI50 (MDA-MB-231): 3.37 µM (inactive) | GI50 (MDA-N): 1.75 µM (inactive) | GI50 (MOLT-4): 1.44 µM (inactive) | GI50 (NCI-H226): 1.88 µM (inactive) | GI50 (NCI-H460): 0.804 µM (active) | GI50 (NCI-H522): 2.52 µM (inactive) | GI50 (NCI/ADR-RES): 5.41 µM (inactive) | GI50 (OVCAR-3): 4.25 µM (inactive) | GI50 (OVCAR-8): 2.6 µM (inactive) | GI50 (SK-MEL-28): 0.628 µM (active) | GI50 (SK-MEL-5): 1.73 µM (inactive) | GI50 (SN12C): 3.03 µM (inactive) | GI50 (TK-10): 6.44 µM (inactive)

FC(F)(F)c1ccc2c(c1)nc(Cc1ccc(Cl)c(Cl)c1)n2CC1CCCN2CCCCC12 (stereo not given)
GI50 (A498): 25.4 µM (inactive) | GI50 (A549): 18.1 µM (inactive) | GI50 (CAKI-1): 29.7 µM (inactive) | GI50 (COLO 205): 16.1 µM (inactive) | GI50 (HL-60): 17.5 µM (inactive) | GI50 (HOP-62): 31 µM (inactive) | GI50 (MCF7): 17.5 µM (inactive) | GI50 (MDA-MB-231): 15.3 µM (inactive) | GI50 (MDA-N): 18.2 µM (inactive) | GI50 (MOLT-4): 37.4 µM (inactive) | GI50 (NCI-H226): 26.5 µM (inactive) | GI50 (NCI-H460): 19.6 µM (inactive) | GI50 (NCI-H522): 14.2 µM (inactive) | GI50 (NCI/ADR-RES): 25.8 µM (inactive) | GI50 (OVCAR-3): 20 µM (inactive) | GI50 (OVCAR-8): 35.8 µM (inactive) | GI50 (SK-MEL-28): 21.1 µM (inactive) | GI50 (SK-MEL-5): 16.4 µM (inactive) | GI50 (SN12C): 20.3 µM (inactive) | GI50 (TK-10): 19.1 µM (inactive)

COc1ccc(Oc2ccc3cc4c(cc3c2O)OCO4)c2cc(C)oc12
GI50 (A498): 38.3 µM (inactive) | GI50 (A549): 30.1 µM (inactive) | GI50 (CAKI-1): 30.1 µM (inactive) | GI50 (COLO 205): 25.5 µM (inactive) | GI50 (HL-60): 25.1 µM (inactive) | GI50 (HOP-62): 41.1 µM (inactive) | GI50 (MCF7): 34 µM (inactive) | GI50 (MDA-MB-231): 33.9 µM (inactive) | GI50 (MDA-N): 29.6 µM (inactive) | GI50 (MOLT-4): 14.3 µM (inactive) | GI50 (NCI-H226): 25.4 µM (inactive) | GI50 (NCI-H460): 21.5 µM (inactive) | GI50 (NCI-H522): 20.9 µM (inactive) | GI50 (NCI/ADR-RES): 20.9 µM (inactive) | GI50 (OVCAR-3): 28.8 µM (inactive) | GI50 (OVCAR-8): 37.5 µM (inactive) | GI50 (SK-MEL-28): 47.5 µM (inactive) | GI50 (SK-MEL-5): 16.4 µM (inactive) | GI50 (SN12C): 29.6 µM (inactive) | GI50 (TK-10): 25.4 µM (inactive)

O=P1(N(CCCl)CCCl)Oc2ccc(Cl)cc2C(C(Cl)(Cl)Cl)c2cc(Cl)ccc2O1 (stereo not given)
GI50 (A498): 24.9 µM (inactive) | GI50 (A549): 5.4 µM (inactive) | GI50 (CAKI-1): 16.5 µM (inactive) | GI50 (COLO 205): 12.9 µM (inactive) | GI50 (HL-60): 4.26 µM (inactive) | GI50 (HOP-62): 11.8 µM (inactive) | GI50 (MCF7): 10.4 µM (inactive) | GI50 (MDA-MB-231): 18.6 µM (inactive) | GI50 (MDA-N): 16.2 µM (inactive) | GI50 (MOLT-4): 3.24 µM (inactive) | GI50 (NCI-H226): 17.8 µM (inactive) | GI50 (NCI-H460): 8.28 µM (inactive) | GI50 (NCI-H522): 8.59 µM (inactive) | GI50 (NCI/ADR-RES): 14.8 µM (inactive) | GI50 (OVCAR-3): 11.4 µM (inactive) | GI50 (OVCAR-8): 25.5 µM (inactive) | GI50 (SK-MEL-28): 35.2 µM (inactive) | GI50 (SK-MEL-5): 11.4 µM (inactive) | GI50 (SN12C): 16.6 µM (inactive) | GI50 (TK-10): 26.2 µM (inactive)

O=C(CC(=O)Nc1ccccc1Cl)NNC(c1cc(/N=N/c2ccc(Br)cc2)ccc1O)P(O)O (stereo not given)
GI50 (A498): 2.27 µM (inactive) | GI50 (A549): 3.82 µM (inactive) | GI50 (CAKI-1): 1.36 µM (inactive) | GI50 (COLO 205): 3.89 µM (inactive) | GI50 (HL-60): 0.323 µM (active) | GI50 (HOP-62): 3.88 µM (inactive) | GI50 (MCF7): 0.791 µM (active) | GI50 (MDA-MB-231): 3.06 µM (inactive) | GI50 (MDA-N): 3.2 µM (inactive) | GI50 (MOLT-4): 0.338 µM (active) | GI50 (NCI-H226): 1.22 µM (inactive) | GI50 (NCI-H460): 0.537 µM (active) | GI50 (NCI-H522): 2.97 µM (inactive) | GI50 (NCI/ADR-RES): 1.07 µM (active) | GI50 (OVCAR-3): 0.348 µM (active) | GI50 (OVCAR-8): 0.525 µM (active) | GI50 (SK-MEL-28): 7.43 µM (inactive) | GI50 (SK-MEL-5): 1.19 µM (inactive) | GI50 (SN12C): 1.6 µM (inactive) | GI50 (TK-10): 1.61 µM (inactive)

Cc1c(NC(=O)Nc2c(Cl)cccc2Cl)c(=O)n(-c2ccccc2)n1C
GI50 (A498): > 100 µM (inactive) | GI50 (A549): > 100 µM (inactive) | GI50 (CAKI-1): > 100 µM (inactive) | GI50 (COLO 205): > 100 µM (inactive) | GI50 (HL-60): > 100 µM (inactive) | GI50 (HOP-62): > 100 µM (inactive) | GI50 (MCF7): > 100 µM (inactive) | GI50 (MDA-MB-231): > 100 µM (inactive) | GI50 (MDA-N): > 100 µM (inactive) | GI50 (MOLT-4): > 100 µM (inactive) | GI50 (NCI-H226): > 100 µM (inactive) | GI50 (NCI-H460): > 100 µM (inactive) | GI50 (NCI-H522): > 100 µM (inactive) | GI50 (NCI/ADR-RES): > 100 µM (inactive) | GI50 (OVCAR-3): > 100 µM (inactive) | GI50 (OVCAR-8): > 100 µM (inactive) | GI50 (SK-MEL-28): > 100 µM (inactive) | GI50 (SK-MEL-5): > 100 µM (inactive) | GI50 (SN12C): > 100 µM (inactive) | GI50 (TK-10): > 100 µM (inactive)

[N-]=[N+]=NC1(c2ccccc2)C(=O)c2cccc3c4ccccc4n(c23)C1=O (stereo not given)
GI50 (A498): > 100 µM (inactive) | GI50 (A549): 76.2 µM (inactive) | GI50 (CAKI-1): > 100 µM (inactive) | GI50 (COLO 205): 6.5 µM (inactive) | GI50 (HL-60): < 0.01 µM (active) | GI50 (HOP-62): > 100 µM (inactive) | GI50 (MCF7): 54 µM (inactive) | GI50 (MDA-MB-231): > 100 µM (inactive) | GI50 (MDA-N): 34.4 µM (inactive) | GI50 (MOLT-4): 98.4 µM (inactive) | GI50 (NCI-H226): > 100 µM (inactive) | GI50 (NCI-H460): > 100 µM (inactive) | GI50 (NCI-H522): 45.6 µM (inactive) | GI50 (NCI/ADR-RES): 33.5 µM (inactive) | GI50 (OVCAR-3): 46.3 µM (inactive) | GI50 (OVCAR-8): > 100 µM (inactive) | GI50 (SK-MEL-28): > 100 µM (inactive) | GI50 (SK-MEL-5): > 100 µM (inactive) | GI50 (SN12C): > 100 µM (inactive) | GI50 (TK-10): > 100 µM (inactive)

COc1cc(I)c2c3c1OC1C34CCN(C)C(C2)C4=CC(I)C1(OC)OC (stereo not given)
GI50 (A498): 32.2 µM (inactive) | GI50 (A549): 29.6 µM (inactive) | GI50 (CAKI-1): 22.4 µM (inactive) | GI50 (COLO 205): 19.4 µM (inactive) | GI50 (HL-60): 17 µM (inactive) | GI50 (HOP-62): 19.1 µM (inactive) | GI50 (MCF7): 20.7 µM (inactive) | GI50 (MDA-MB-231): 20.1 µM (inactive) | GI50 (MDA-N): 19.9 µM (inactive) | GI50 (MOLT-4): 16.2 µM (inactive) | GI50 (NCI-H226): 22.6 µM (inactive) | GI50 (NCI-H460): 19.1 µM (inactive) | GI50 (NCI-H522): 21.2 µM (inactive) | GI50 (NCI/ADR-RES): 28.2 µM (inactive) | GI50 (OVCAR-3): 19.2 µM (inactive) | GI50 (OVCAR-8): 20.1 µM (inactive) | GI50 (SK-MEL-28): 18.2 µM (inactive) | GI50 (SK-MEL-5): 17.1 µM (inactive) | GI50 (SN12C): 16.3 µM (inactive) | GI50 (TK-10): 21.3 µM (inactive)

O=c1oc2c(ccc3c(O)cccc32)c2c1CCCC2
GI50 (A498): 27.7 µM (inactive) | GI50 (A549): 72.3 µM (inactive) | GI50 (CAKI-1): 32.2 µM (inactive) | GI50 (COLO 205): > 100 µM (inactive) | GI50 (HL-60): > 100 µM (inactive) | GI50 (HOP-62): 18.9 µM (inactive) | GI50 (MCF7): 42.2 µM (inactive) | GI50 (MDA-MB-231): 17.4 µM (inactive) | GI50 (MDA-N): > 100 µM (inactive) | GI50 (MOLT-4): > 100 µM (inactive) | GI50 (NCI-H226): > 100 µM (inactive) | GI50 (NCI-H460): 45.2 µM (inactive) | GI50 (NCI-H522): 40 µM (inactive) | GI50 (NCI/ADR-RES): 46 µM (inactive) | GI50 (OVCAR-3): > 100 µM (inactive) | GI50 (OVCAR-8): 30.6 µM (inactive) | GI50 (SK-MEL-28): > 100 µM (inactive) | GI50 (SK-MEL-5): 47.2 µM (inactive) | GI50 (SN12C): > 100 µM (inactive) | GI50 (TK-10): > 100 µM (inactive)

CCc1nc(Cl)nc(Cl)c1Cl
GI50 (A498): 4.94 µM (inactive) | GI50 (A549): 2.63 µM (inactive) | GI50 (CAKI-1): 0.193 µM (active) | GI50 (COLO 205): 0.284 µM (active) | GI50 (HL-60): 1.36 µM (inactive) | GI50 (HOP-62): 8.05 µM (inactive) | GI50 (MCF7): 0.403 µM (active) | GI50 (MDA-MB-231): 1.63 µM (inactive) | GI50 (MDA-N): 1.77 µM (inactive) | GI50 (MOLT-4): 0.332 µM (active) | GI50 (NCI-H226): 6.5 µM (inactive) | GI50 (NCI-H460): 7.98 µM (inactive) | GI50 (NCI-H522): 0.0494 µM (active) | GI50 (NCI/ADR-RES): 2.52 µM (inactive) | GI50 (OVCAR-3): 0.535 µM (active) | GI50 (OVCAR-8): 1.04 µM (active) | GI50 (SK-MEL-28): 4.95 µM (inactive) | GI50 (SK-MEL-5): 2.56 µM (inactive) | GI50 (SN12C): 2.22 µM (inactive) | GI50 (TK-10): 6.93 µM (inactive)
